From patent US20250326738A1, “MALT1 Modulators and Uses Thereof” (Rarefied Biosciences, Inc., priority 2022, published 2025) come the findings set out here.

The subject of one test is Jurkat IL-2. As to the kind of experiment: Jurkat IL-2 assay (IL-2 inhibition by ELISA after anti-CD3/28/2 stimulation). The format is cell-based. To be noted: Jurkat clone E6.1, IL-2 in supernatant, 30 min pre-incubation, anti-CD3/28/2 stimulation 24 hours, mean if tested more than once. Here is the method: Inhibition was determined in a cell-based assay using Jurkat (ATCC, clone E6.1), an immortalized T-cell line, exposed to a dose response of compound and assessed for viability, and IL-2 inhibition by ELISA. Cells were cultured in RPMI/10% FBS (Invitrogen 11875093, Atlanta Biologicals S12450H), maintained below 3E6/mL and only used in assays while below passage 25. Compounds were stamped by ECHO onto 384w plates (PerkinElmer Culturplate, 6007680). The cells were plated in fresh media on top of compound and incubated for 30 minutes before stimulation with soluble anti-CD3/28/2 (Stemcell, 10970) for 24 hours. Supernatant was collected and assessed for IL-2 (MSD, 384w, L21SA-1). To assess viability of cells treated with compound, cells were lysed with CTG reagent (Promega, G7570), and measured by luminometer. […] IC50s calculated using 4-parameter fit in GraphPad Prism.
“N/A” indicates not tested. For a compound that was tested in more than one experiment, the result shown represents the mean value.

The next test has as its target T1, full length MALT1 (Homo sapiens, UniProt Q9UDY8).
T1 construct: measuring enzymatic activity of full length MALT1 at varying concentrations of compound
T1 sequence (Q9UDY8 1-824): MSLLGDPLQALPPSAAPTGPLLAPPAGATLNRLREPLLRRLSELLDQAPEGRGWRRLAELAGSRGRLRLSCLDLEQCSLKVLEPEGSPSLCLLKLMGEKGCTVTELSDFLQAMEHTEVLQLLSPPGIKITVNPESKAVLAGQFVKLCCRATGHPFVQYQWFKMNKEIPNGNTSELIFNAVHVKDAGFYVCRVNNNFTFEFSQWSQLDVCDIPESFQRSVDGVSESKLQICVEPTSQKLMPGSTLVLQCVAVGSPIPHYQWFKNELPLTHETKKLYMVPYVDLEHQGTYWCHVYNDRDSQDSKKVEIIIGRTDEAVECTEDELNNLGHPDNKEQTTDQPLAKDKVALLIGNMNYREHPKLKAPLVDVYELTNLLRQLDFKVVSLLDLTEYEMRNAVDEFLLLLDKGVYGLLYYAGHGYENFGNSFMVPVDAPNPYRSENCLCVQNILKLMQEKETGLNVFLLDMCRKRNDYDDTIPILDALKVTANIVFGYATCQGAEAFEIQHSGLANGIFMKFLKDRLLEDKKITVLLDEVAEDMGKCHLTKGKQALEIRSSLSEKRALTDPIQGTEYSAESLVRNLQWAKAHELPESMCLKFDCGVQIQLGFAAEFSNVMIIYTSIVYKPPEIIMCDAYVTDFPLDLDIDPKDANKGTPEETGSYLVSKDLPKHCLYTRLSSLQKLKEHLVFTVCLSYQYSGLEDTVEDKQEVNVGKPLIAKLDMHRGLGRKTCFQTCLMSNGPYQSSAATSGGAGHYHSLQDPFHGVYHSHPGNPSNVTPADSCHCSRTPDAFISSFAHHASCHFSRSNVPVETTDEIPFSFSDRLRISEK
The test can be described thus: MALT1 biochemical assay (fluorogenic peptide substrate cleavage). The following applies: full length MALT1, 15 nM enzyme, 30 μM peptide substrate, 30 min pre-incubation, 60 min reaction; mean if tested more than once. How it is done:
Inhibitor potency was evaluated by measuring enzymatic activity of full length MALT1 at varying concentrations of compound. The enzymatic assay consists of a single substrate reaction that monitors the release of a fluorescent dye upon cleavage of the peptide substrate. […] The assay buffer consists of 50 mM Hepes, pH 7.5, 0.8 M sodium citrate, 1 mM DTT, 0.004% tween-20, and 0.005% bovine serum albumin (BSA). […] The reaction was quenched after 60 minutes with the addition of iodoacetate at a final concentration of 10 mM. Total fluorescence was measured using an Envision (PerkinElmer) with fluorescence excitation at 485 nm and emission at 520 nm.
The reaction was initiated with the addition of 10 μL of peptide substrate. […] IC50 values were calculated by fitting the concentration-response curves to a four-parameter logistic equation in GraphPad Prism.
“N/A” indicates not tested.

For the compound `CO[C@@H](C)c1c(Nc2ccc([C@H](N(C)C(=O)C3CCN(C(C)=O)CC3)C(F)(F)F)cc2)cnn1-c1cccnc1` [Compound 1.34], the IC50 in the test on Jurkat IL-2 (Homo sapiens) and on full length MALT1 was 100 to 1000 nM each time.
`CC(=O)N1CC(C(=O)N(C)[C@@H](c2ccc(Nc3cnn(-c4cccc(C#N)c4)c3C(F)(F)F)cc2)C(F)(F)F)C1` [Compound 1.35]: the IC50 in the test on Jurkat IL-2 (Homo sapiens) was < 100 nM; against full length MALT1 it was 100 to 1000 nM.
Consider `CC(=O)N1CC(C(=O)N(C)[C@@H](c2ccc(Nc3cnn(-c4cccnc4)c3C(F)(F)F)cc2)C(F)(F)F)C1` [Compound 1.36], for which the concentration for half-maximal inhibition (IC50) with Jurkat IL-2 (Homo sapiens) and at full length MALT1 was < 100 nM in each case.
For `CC(=O)N1CC(C(=O)N(C)[C@@H](c2ccc(Nc3cnn(-c4ccccn4)c3C(F)(F)F)cc2)C(F)(F)F)C1` [Compound 1.37], the half-maximal inhibitory concentration (IC50) in the test on Jurkat IL-2 (Homo sapiens) and against full length MALT1 was < 100 nM in each case.
For the compound `CO[C@@H](C)c1c(Nc2ccc([C@H](N(C)C(=O)C3CN(C(C)=O)C3)C(F)(F)F)cc2)cnn1-c1ccccc1` [Compound 1.38], the IC50 in the test with Jurkat IL-2 (Homo sapiens) and at full length MALT1 was 100 to 1000 nM each time.
For `CC(=O)N1CC(C(=O)N(C)[C@@H](c2ccc(Nc3cnn(-c4cccc(C#N)c4)c3C3CC3)cc2)C(F)(F)F)C1` [Compound 1.39], the IC50 in the test with Jurkat IL-2 (Homo sapiens) and against full length MALT1 was 100 to 1000 nM each time.
As for `CC(=O)N1CC(C(=O)N(C)[C@@H](c2ccc(Nc3cnn(-c4ccccn4)c3C3CC3)cc2)C(F)(F)F)C1` [Compound 1.40], the IC50 in the test with Jurkat IL-2 (Homo sapiens) is 100 to 1000 nM; against full length MALT1, < 100 nM.
The matching figures for `CN(C(=O)[C@H]1CC[C@H](C(=O)O)CC1)[C@@H](c1ccc(Nc2cnn(-c3ccccc3)c2C(F)(F)F)cc1)C(F)(F)F` [Compound 2.1, (1S,4r)-4-(methyl((S)-2,2,2-trifluoro-1-(4-((1-phenyl-5-(trifluoromethyl)-1H-pyrazol-4-yl)amino)phenyl)ethyl)carbamoyl)cyclohexane-1-carboxylic acid]: < 100 nM and < 100 nM.
Regarding `CN(C(=O)[C@H]1CC[C@H](C(=O)O)CC1)[C@@H](c1ccc(Nc2cnn(-c3ccncc3)c2C(F)(F)F)cc1)C(F)(F)F` [Compound 2.2], the half-maximal inhibitory concentration (IC50) in the test with Jurkat IL-2 (Homo sapiens) and against full length MALT1 was 100 to 1000 nM each time.
`CN(C(=O)[C@H]1CC[C@H](C(=O)O)CC1)[C@@H](c1ccc(Nc2cnn(-c3cccnc3)c2C(F)(F)F)cc1)C(F)(F)F` [Compound 2.3]: the concentration for half-maximal inhibition (IC50) in the test on Jurkat IL-2 (Homo sapiens) is < 100 nM; at full length MALT1, 100 to 1000 nM.
The matching figures for `CN(C(=O)[C@H]1CC[C@H](C(=O)O)CC1)[C@@H](c1ccc(Nc2cnn(-c3ccccn3)c2C(F)(F)F)cc1)C(F)(F)F` [Compound 2.4]: < 100 nM and < 100 nM.
`CO[C@@H](C)c1c(Nc2ccc([C@H](N(C)C(=O)[C@H]3CC[C@H](C(=O)O)CC3)C(F)(F)F)cc2)cnn1-c1ccccn1` [Compound 2.5]: the IC50 was 100 to 1000 nM in the test on Jurkat IL-2 (Homo sapiens) and < 100 nM on full length MALT1.
The matching figures for `CO[C@@H](C)c1c(Nc2ccc([C@H](N(C)C(=O)[C@H]3CC[C@H](C(=O)O)CC3)C(F)(F)F)cc2)cnn1-c1ccccc1` [Compound 2.6]: 100 to 1000 nM and 100 to 1000 nM.
The matching figures for `CO[C@@H](C)c1c(Nc2ccc([C@H](N(C)C(=O)[C@H]3CC[C@H](C(=O)O)CC3)C(F)(F)F)cc2)cnn1-c1ccncc1` [Compound 2.7]: > 1000 nM and 100 to 1000 nM.
As for `CO[C@@H](C)c1c(Nc2ccc([C@H](N(C)C(=O)[C@H]3CC[C@H](C(=O)O)CC3)C(F)(F)F)cc2)cnn1-c1cccnc1` [Compound 2.8], the concentration for half-maximal inhibition (IC50) with Jurkat IL-2 (Homo sapiens) and at full length MALT1 was 100 to 1000 nM in each case.
With `CN(C(=O)[C@H]1CC[C@H](C(=O)O)CC1)[C@@H](c1ccc(Nc2cnn(-c3cccnn3)c2C(F)(F)F)cc1)C(F)(F)F` [Compound 2.9], the half-maximal inhibitory concentration (IC50) with Jurkat IL-2 (Homo sapiens) and against full length MALT1 was < 100 nM each time.
Turning to `CO[C@@H](C)c1c(Nc2ccc([C@H](N(C)C(=O)[C@H]3CC[C@H](C(=O)O)CC3)C(F)(F)F)cc2)cnn1-c1cccc(C#N)c1` [Compound 2.10], the IC50 in the test on Jurkat IL-2 (Homo sapiens) was 100 to 1000 nM; on full length MALT1 it was < 100 nM.
For `CN(C(=O)[C@H]1C[C@H](C(=O)O)C1)[C@@H](c1ccc(Nc2cnn(-c3ccccn3)c2C(F)(F)F)cc1)C(F)(F)F` [Compound 2.11, (1r,3r)-3-{methyl[(1S)-2,2,2-trifluoro-1-(4-{[1-(pyridin-2-yl)-5-(trifluoromethyl)-1H-pyrazol-4-yl]amino}phenyl)ethyl]carbamoyl}cyclobutane-1-carboxylic Acid Amine] the same measures were < 100 nM and < 100 nM.
For `CN(C(=O)[C@H]1C[C@@H](C(=O)O)C1)[C@@H](c1ccc(Nc2cnn(-c3ccccn3)c2C(F)(F)F)cc1)C(F)(F)F` [Compound 2.12, (1s,3s)-3-{methyl[(1S)-2,2,2-trifluoro-1-(4-{[1-(pyridin-2-yl)-5-(trifluoromethyl)-1H-pyrazol-4-yl]amino}phenyl)ethyl]carbamoyl}cyclobutane-1-carboxylic Acid Amine] the same measures were 100 to 1000 nM and < 100 nM.
Turning to `CN(C(=O)[C@H]1C[C@H](C(=O)O)C1)[C@@H](c1ccc(Nc2cnn(-c3ccccc3)c2C(F)(F)F)cc1)C(F)(F)F` [Compound 2.13], the IC50 in the test on Jurkat IL-2 (Homo sapiens) and against full length MALT1 was < 100 nM throughout.
In the case of `CN(C(=O)[C@H]1C[C@@H](C(=O)O)C1)[C@@H](c1ccc(Nc2cnn(-c3ccccc3)c2C(F)(F)F)cc1)C(F)(F)F` [Compound 2.14], the IC50 with Jurkat IL-2 (Homo sapiens) is 100 to 1000 nM; against full length MALT1, < 100 nM.
As for “(1r,4S)—N—((S)-1-(4-((4-cyclopropyl-1,5-naphthyridin-3-yl)amino)phenyl)-2,2,2-trifluoroethyl)-N-methyl-4-(1H-tetrazol-5-yl)cyclohexane-1-carboxamide [Compound 3.1]”, the concentration for half-maximal inhibition (IC50) with Jurkat IL-2 is 100 to 1000 nM; against full length MALT1, > 1000 nM.
